Publication PMC7918775, “Quality by Design Applied Development of Immediate-Release Rabeprazole Sodium Dry-Coated Tablet” (Pharmaceutics, 2021)
Entries after “also recorded” stand apart in the source; their conditions may differ. Like-named read-outs stand apart in the source and are kept apart here.

What was measured:
physchem = settings: water, thermodynamic from solid
Protocol: The solubility of each component in deionized water, solvents (ethanol, methanol), citric acid/sodium citrate buffer, and pH buffer was evaluated.
Each vial contained 10 mg rabeprazole sodium, and 200 µL of each solvent was slowly added. […] The solutions were filtered and then diluted 2000× to measure the quantity of rabeprazole sodium dissolved in the solution. Equilibrium or final rabeprazole sodium solubility was calculated from the HPLC peak. Peak area of sample solution × 100 × 100/Average of standard solution peak area ×1000

[1] = Stability of APIs in solution at various pH (content, appearance); type: physicochemical
[2] = API-API compatibility study (impurities by HPLC); type: physicochemical
Protocol: (§1) The latter reflects the proportions of APIs in each commercialized tablet. The prepared samples were stored in a stability chamber for 4 weeks at room temperature of 25 ± 2 °C/ 60 ± 5% RH and under acceleration conditions of 40 ± 2 °C/ 75 ± 5% RH, respectively. […] If none were detected, an additional impurity test was performed to confirm compatibility.

[3] = Rabeprazole sodium/excipient compatibility study (appearance, impurities by HPLC); type: physicochemical; settings: 1:1 (w/w) mixtures, HPLC impurity test; threshold 3.5%
Protocol: as §1

[4] = cited from earlier work
[5] = cited from earlier work; remark: listed apart in the source
[6] = Protocol: The solution was then stirred at 37 ± 2 °C for 1 h and filtered by polyvinylidene fluoride (PVDF) membrane filter. Next, 50 mL of the filtrate was obtained and titrated with hydrochloric acid with 0.1 M sodium hydroxide solution (pH measurement method) with an endpoint of pH 3.5.

SMILES: COCCCOc1ccnc(C[S+]([O-])c2nc3ccccc3[nH]2)c1C (stereo not drawn) [Rabeprazole sodium]
- solubility (physchem): > 110 mg/mL
- Rabeprazole sodium content measured according to pH ([1]; pH 1.2 to 6.0): 30 to 60%
- Time stable in solution ([1]; pH 8.0): ~ 26 h
- Appearance in buffers ([1]; range of pH 1.2–12.0): changed in buffers with pH < 7.0; also recorded: transparent in buffers with pH > 8.0
- Impurities, 4 Weeks ([2]; Accelerated Condition 40 °C/75% RH): 1.31%
- Impurities, 4 Weeks ([2]; Room Temperature 25 °C/60% RH): 0.07%
- Impurities, Initial ([2]; initial): 0.06%
- Concentration of decomposition products [3]: no decomposition products were formed
- solubility ([4]; Water): 10 mg/mL (Water)
- Decomposition half-life ([4]; aqueous solutions with pH < 3.0): < 10 min
- pKa (Strongest Acidic) [4]: 9.35
- pKa (Strongest Basic) [4]: 4.24
- Time to reach maximum plasma concentration ([5]; Adolescents, Tablets): 3.3 to 4.1 h
- Time to reach maximum plasma concentration ([5]; Adults, Capsule): 1 to 6.5 h
- Time to reach maximum plasma concentration ([5]; Adults, Tablets): 2 to 5 h
- Bioavailability ([5]; Tablets): ~52%
- Half-life (dose dependent) ([5]; adolescents): 33 to 60 min
- Half-life (dose dependent) ([5]; adults): 60 to 120 min
- Action onset time ([5]; in vivo): ≤ 1 h
- Duration ([5]; in vivo): 24 h
- Excretion: urine ([5]; in vivo): 90%
- Metabolism ([5]; in vivo): metabolized by CYP3A and 2C19 to inactive metabolites in the liver
- Protein binding rate ([5]; in vivo): 96.3%
- Delay of absorption by food ([5]; oral, with food): up to 4 h or more
- Absorption: Oral ([5]; oral): well absorbed within 1 h
- Half-life increase ([5]; patients with mild to moderate hepatic impairment): 2–3 times

SMILES: O=C([O-])O.[Na+] [Sodium bicarbonate]
- Acid-neutralizing capacity (0.1 M HCl consumption) ([6]; 200 mg sodium bicarbonate): 38 mL
- Acid-neutralizing capacity (0.1 M HCl consumption) ([6]; 300 mg sodium bicarbonate): 42 mL
- Acid-neutralizing capacity (0.1 M HCl consumption) ([6]; 400 mg sodium bicarbonate): 45 mL
- Acid-neutralizing capacity (0.1 M HCl consumption) ([6]; 500 mg sodium bicarbonate): 49 mL
- Acid-neutralizing capacity (0.1 M HCl consumption) ([6]; 600 mg sodium bicarbonate): 57 mL
- Acid-neutralizing capacity (0.1 M HCl consumption) ([6]; 700 mg sodium bicarbonate): 68 mL
- Acid-neutralizing capacity (0.1 M HCl consumption) ([6]; 800 mg sodium bicarbonate): 79 mL
- Acid-neutralizing capacity (0.1 M HCl consumption) ([6]; 900 mg sodium bicarbonate): 84 mL
- Acid-neutralizing capacity (0.1 M HCl consumption) ([6]; 1000 mg sodium bicarbonate): 89 mL
- PKa (carbonic acid) ([4]; carbonic acid): 6.351
- PKa [4]: 10.329
- Duration ([5]; Intravenous (IV)): 0.13 to 0.167 h
- Onset time of action ([5]; Intravenous (IV)): fast
- Excretion: urine ([5]; in vivo): < 1%
- Duration ([5]; oral): 1 to 3 h
- Onset time of action ([5]; oral): 15 min
